Test results taken from ChEMBL document CHEMBL3507680, “University of Dundee, Gates Library screen for HepG2 cell viability”.

Experiment: Human HepG2 cell viability assay in 384 well format
Type: toxicity, cell-based
Parameters: dose 125 nL, time 70.5 hour; cytotoxicity at 70.5 h: concentration not given beside the values
Conditions: HepG2 cells, read-out: Inhibition

Compound | cytotoxicity at 70.5 h
CC(C)NCC1OCCc2cn(C)nc21 (stereo not drawn) | -6.64%
COc1cccc(CN2CC(=O)N(c3ccccc3C)CC2C)c1OC (stereo not drawn) | -6.78%
COc1cc(N2CC[C@H](O)[C@@H]2Cc2cccnc2)ncn1 | -10.8%
CC(C)c1nc(/C=C/c2ccc(O)c(Cl)c2)ncc1C(=O)O | -4.86%
CC(C(=O)NCCCN1CCN(c2ccccc2)CC1)n1cncn1 (stereo not drawn) | -15.9%
Cc1ncc2c(n1)CCCC2NC(=O)c1ccc(Cn2cccn2)cc1 (stereo not drawn) | -5.6%
O=C(CCN1CCCC1=O)Nc1cnn(-c2ccccc2Cl)c1 | -8.1%
Oc1cc(CC2COCCN(CC3(O)CCOCC3)C2)ncn1 (stereo not drawn) | 23%
CCn1ccc(NC(=O)CCc2c(C)noc2C)n1 | -7.45%
CC(=O)c1cccc(NC(=O)CN2CCCCC2C(=O)N2CCCC2)c1 (stereo not drawn) | -13.4%
CCC(NC(=O)CC1CCN(C(C)C)CC1)c1cn2cccnc2n1 (stereo not drawn) | 1.45%
CSc1ccc(C(CN)N2CCc3sccc3C2)cc1 (stereo not drawn) | 24.3%
Cc1noc(CCCC(=O)NC(C)c2cn(-c3ccccc3)nn2)n1 (stereo not drawn) | -3%
CC[S+](CC)[c-]1c(=O)[nH]c(=O)n(Cc2ccc(F)cc2)c1=O | 3.21%
Cc1c[nH]c(CN(C)C(=O)C2CC(=O)N(Cc3ccncc3)C2)n1 (stereo not drawn) | 11.9%
CCN(CC)C(=O)Cn1ccc2cc(NC(=O)C3CC3)ccc21 | 7.86%
Cc1[nH]c2ccccc2c1-c1ccnc(N[C@H](CO)CC(C)C)n1 | -2.73%
O=C(CCc1cc(O)no1)N1CCC(Cc2ccc(F)cc2)CC1 | -12%
C1CCN(CCOC2CCNC2)CC1 (stereo not drawn) | -3.02%
COCCCNC(=O)c1cn(C(C)C)cc2c(=O)[nH]nc1-2 | -9.87%
COc1ccc(CN(CCC#N)CCN2CCOCC2)c(OC)c1 | -4.65%
Cc1nc(COC[C@@H]2CC[C@H]3[C@H](CCN3c3ccccn3)O2)cs1 | -90.1%
CCN1CC2(CCC1=O)CCN(CCc1nccn1C)CC2 | -6.75%

Compound | cytotoxicity at 70.5 h
CC(C)NC(=O)[C@H]1C[C@@H]2[C@@H](C1)OCCN2Cc1nccs1 | -4.27%
O=C(N1CCCO1)[C@@]12CCO[C@@H]1CCN(Cc1ccccn1)C2 | 2.18%
CNc1ccnc(N2C[C@@H]3CC[C@H](C2)N(CCOC)C3=O)n1 | -8%
CCN(C)S(=O)(=O)N(CC)Cc1cccc(-c2ccncc2)c1 | -4.01%
CC(C)N(C)Cc1noc2c1CN(C(=O)c1cnccn1)CC2 | -1.15%
Cc1cc(CN(C)C(=O)NCc2ccnc(N(C)C)c2)no1 | -1.17%
CC(O)CN1CCC(CNCc2ccccc2C(F)(F)F)CC1 (stereo not drawn) | 13.9%
O=C1CCC2(CCOC2)CN1Cc1nc2ccc(Cl)cc2[nH]1 (stereo not drawn) | -1.72%
CCNC(c1ccc(OC)cc1)c1cccnc1 (stereo not drawn) | -8.14%
Cc1cc(-c2cnc(NCc3ccc4c(c3)OCO4)nc2C(C)C)on1 | -4.67%
Cc1cccc(C(C)C)c1NC(=O)CN(C)C(C)c1nccs1 (stereo not drawn) | -9.73%
CCC(CO)Nc1nc(C(F)F)nc2ccccc12 (stereo not drawn) | -11.3%
O=S1(=O)CCC(N(Cc2nc3ccccc3o2)Cc2cccs2)C1 (stereo not drawn) | 19.2%
N#Cc1ccc(S(=O)(=O)N2CC(CC(=O)O)c3ccccc32)cc1 (stereo not drawn) | -3.42%
CCc1cnc(C)nc1N1CCC(Cc2cccc(C(=O)O)c2)C1 (stereo not drawn) | -7.7%
CS(=O)(=O)N1CC[C@H]2C[C@@H](C(=O)N3CCOCC3)O[C@@H]2C1 | 2.65%
CCNc1ncc2c(n1)CN(c1ccc(Cl)cc1)C2=O | -14.1%
Cc1c(C)n2c(SCC(=O)N3CCC(C)CC3)nnc2[nH]c1=O | -4.99%
CCCN1CCC(NC(=O)NCCc2nc(CC)c(C)s2)CC1 | -1.97%
CC(C)(C)c1nccc(N2CCCCC2CNS(C)(=O)=O)n1 (stereo not drawn) | -4.1%
CN1C(=O)C2(CC(=O)Nc3[nH]ncc32)c2ccc(F)cc21 (stereo not drawn) | -15.5%
CC1CN(C)CCN1CC(=O)NCCOc1ccc(Cl)cc1 (stereo not drawn) | 11.2%
CCc1ccc(C(=O)N2CCCN(Cc3csc(CC)n3)CC2)o1 | 6.45%

Compound | cytotoxicity at 70.5 h
CN(Cc1ccncc1)CC(c1cccs1)N1CCOCC1 (stereo not drawn) | 36%
Cc1ccnc(NC(=O)c2ccc(Cl)o2)c1 | -9.97%
CN(C)C(=O)CN1CCCC(c2cncc(-c3cccc(Cl)c3)n2)C1 (stereo not drawn) | -1.23%
CC1(C)COCCN1C(=O)CCc1nc(-c2ccncc2)no1 | 4.51%
Cc1cc(-c2cnc(N3CCCC3)nc2-c2ccc(C)s2)on1 | -6.38%
CC(=O)c1nn(-c2ccccc2)c(C)c1C(C)=O | -8.03%
N#CCCN(C(=O)COC1CCCC1)C1CC1 | -0.353%
Cc1ccc(C(=O)N2CCc3ncnc(-c4cnn(C)c4)c3CC2)cn1 | -2.36%
CNC(=O)[C@@H](c1ccccc1)N1CCC[C@H]1C(=O)NCc1cccnc1 | -2.18%
Cc1cc(C)n(CC2CCCN2CC(=O)N(C)Cc2ccc(C)o2)n1 (stereo not drawn) | 18%
CCc1ncnc2c1CCN(Cc1ccccn1)CC2 | 28%
CC(C)n1ccc(=O)nc1SC1CCN(c2ccccc2F)C1=O (stereo not drawn) | -1.73%
CCOCCN1C[C@H](C(=O)Nc2cccnc2)[C@@H]2CCO[C@@H]2C1 | -4.15%
Cn1cc(S(=O)(=O)N2CCCC2CC(=O)c2cccs2)cn1 (stereo not drawn) | -9.81%
CN(C)Cc1ccc(C2CCCCN2C(=O)c2cccnn2)cc1 (stereo not drawn) | 2.83%
Cc1cccc(CN2CC3(CCN(Cc4ccco4)CC3)OCC2=O)n1 | -3.31%
c1cnc(N2C[C@H]3CCN(Cc4ccncc4)C[C@H]3C2)nc1 | -7.09%
CCCn1ccnc1-c1cccc(NC2CCOC2)c1 (stereo not drawn) | -1.36%
CCCN(Cc1cccnc1)C1CC(C)(C)NC(C)(C)C1 | -3.34%
CC(C)Cc1noc(CN2CCN(CCOc3ccc(Cl)cc3)CC2)n1 | -10.1%
CN(C)c1ncc2c(c1C(=O)O)CCN(Cc1ccco1)C2 | -4.04%
CCN(C)C(=O)Nc1cc(F)c(OC)cc1F | 18.4%
CCN(Cc1cccc(Cl)c1)Cc1nc2c(cnn2C)c(=O)[nH]1 | -7.7%

Compound | cytotoxicity at 70.5 h
CC(C)c1nc(CN2CCN(C(=O)Cc3ccccc3Cl)CC2)no1 | -1.7%
Cc1cc(=O)n2ncnc2n1CC(O)c1cc(Cl)ccc1Cl (stereo not drawn) | -22.2%
Cc1nc(CN2C[C@@H]3CN(C(=O)CC(F)(F)F)C[C@@H]3C2=O)cs1 | -9.18%
O=C(NCC(F)(F)F)C(c1cccnc1)N1CCOCC1 (stereo not drawn) | -5.8%
COc1nc2c(cc1C(=O)NCCCc1csc(N)n1)CCC2 | -6.85%
Cn1ncnc1CNc1ccc2c(c1)N(C(=O)OC(C)(C)C)CCC2 | -8.19%
COc1cccc(OCCNCc2c(C)nn(C)c2N(C)C)c1 | -4.8%
O=C(c1cccs1)N1CCc2c(nc(N3CCCCC3)[nH]c2=O)C1 | -0.672%
Cn1cc(-c2ncc3c(c2C(=O)O)CCN(Cc2ccco2)C3)cn1 | -5.93%
Cc1cccc(CN2CCCn3c(nnc3Cn3cccn3)C2)n1 | 10.9%
c1ccc(N2CCOCC3(CCCN(c4nccs4)C3)C2)nc1 (stereo not drawn) | 4.3%
O=C(Cc1ccc2c(c1)OCO2)N1CCN(c2ccccc2Cl)C(=O)C1 | -4.7%
Cc1ccccc1C(=O)Nc1cnn(CC(=O)NC2CCCC2)c1 | -3.04%
Cc1ccc(C2CCCN2Cc2nc(-c3ccco3)no2)cc1 (stereo not drawn) | -1.81%
CN(C)CCN1CCO[C@@H]2CCN(C(=O)c3cccn3C)CC[C@H]21 | 10.8%
Cc1ccc(CN(CCCN2CCOCC2)Cc2cnc(C)n2C)o1 | 12.4%
Cc1nn(C)c(N(C)C)c1CNCc1cccnc1-n1cncn1 | -5.08%
CC(=O)N1N=C(c2ccco2)OC1C(=O)NCC(C)C (stereo not drawn) | -4.23%
Cc1noc(C)c1CN1Cc2cnn(C)c2C(COCC2CC2)C1 (stereo not drawn) | -10.8%
Cc1noc(CN(C)C(=O)CCn2cnc3ccccc32)n1 | -13.9%
O=C(CCOc1cccc(F)c1)N1CCCC(n2cncn2)C1 (stereo not drawn) | -6.87%
COc1cn(-c2ccccc2)nc1C(=O)NCCCN1CCCC(C)C1 (stereo not drawn) | -11.2%
CCOC(=O)CN(C)C1CCc2ccccc21 (stereo not drawn) | 26.7%

Compound | cytotoxicity at 70.5 h
CNc1nc(CNC(=O)Nc2cccc(-c3nnco3)c2)cs1 | -18.7%
CCOc1cccc(CN2CCCC(Nc3ccc(F)cc3)C2)c1O (stereo not drawn) | -6.06%
Cc1noc(C)c1CN1C[C@H](OCC2CCN(C)CC2)[C@H]2COC[C@H]21 | 30.4%
O=C(NC1CC1)N1C[C@H]2CN(c3ccccc3)C(=O)[C@H]2C1 | 4.91%
Fc1cccc(CN2CCOC3(COCCN(CC4CC4)C3)C2)c1 (stereo not drawn) | -8.93%
c1cnnc(N2CCCC(NCc3ccc(-n4cncn4)cc3)C2)c1 (stereo not drawn) | -3.17%
CCc1nc(CN2CCCN(c3ncnc4ccccc34)CC2)no1 | 40.8%
Cc1nc(C)n(CC2CCCCN2CCCO)n1 (stereo not drawn) | 9.77%
O=C(c1nn(-c2ccccc2F)cc1O)N1CCCSCC1 | 2.69%
Cn1cc(CN2C[C@H](N3CCOCC3)[C@@H]3OCCC[C@@H]32)cn1 | -4.71%
OC1CCN(c2ccnc(NCCN3CCc4ccccc4C3)n2)C1 (stereo not drawn) | -13.9%
O=C(C1CCOC1)N1C[C@@H]2CCN(C(=O)c3cscn3)[C@@H]2C1 (stereo partly drawn) | 14%
CCCn1c(C)c(CC(=O)NCCOC)c2c1CC(C)(C)CC2=O | -0.0334%
Cc1nc2sccn2c1CN(CCCN(C)C)Cc1ccccn1 | -8.06%
CCc1nc(C(=O)N2CCOCC2CC(=O)c2ccccc2)c[nH]1 (stereo not drawn) | -8.59%
Cc1ccc(N2CCc3ncnc(N(C)C)c3CC2)nn1 | -6.25%
CCOc1ccc(CN2CC[C@H]3CC[C@@H](C2)N3)cc1CO | -14%
O=C(NCc1nncn1C1CC1)c1cccnc1Oc1ccccc1 | -0.0708%
CC(c1ccc(S(N)(=O)=O)cc1)N(C)C(=O)c1ccccc1I (stereo not drawn) | -5.97%
O=C(NCC(O)c1ccc(F)cc1F)c1ccccc1 (stereo not drawn) | -4.27%
COc1ccc(CN(Cc2cncn2C)CC2CCCO2)c(OC)c1 (stereo not drawn) | 4.29%
